One data set relates to H292 clone 15 cells. As to conditions: 48 hours compound, Alamar Blue 2 hours; Average of 3 experiments.
Data set [1] has as its system MUC5AC production by H292 clone 15 cells overexpressing hCLCA1. Put plainly: ELLA of MUC5AC in conditioned media of H292 clone 15 cells. In kind it is cell-based, human. As to conditions: Homo sapiens, NCI-H292, 48 hours, Average of 3 experiments.
Method: Conditioned media were collected and MUC5AC (the major secretory mucin in lungs) content was determined by ELLA measurement as described below. 96 well microtiter plates were coated with a mouse monoclonal antibody against human MUC5AC (1-13M1, NeoMarkers), then incubated with test conditioned media. Bound MUC5AC was detected by horseradish peroxidase-conjugated soybean lectin which has a high affinity towards highly-glycosylated proteins such as MUC5AC. Conversion of peroxidase substrate TMB (Tetramethylbenzidine Base) was quantified by reading at 450 nm. O.D. (optical density) readings were plotted against concentrations of compounds.
A further data set relates to activated Caco2 cells. As to conditions: Caco-2.
The subject of data set [2] is MUC5A/C secretion in hCLCA1 expressing H292 cells. Put plainly: MUC5A/C secretion in hCLCA1 expressing H292 cells (ELLA). As to conditions: Table 2, mucin production. In kind it is cell-based, human. Also on record: key to ELLA: + = inhibition; − = no inhibition.
The subject of data set [3] is NCI-H292/hICACC-1 (AAF 15) cells. The data set can be described thus: AB/PAS staining of mucous glycoconjugates in NCI-H292 cells over-expressing hICACC-1. In kind it is cell-based, human. As to conditions: 3 days. How it is done:
NCI-H292 cells, a human pulmonary mucoepidermoid carcinoma cell line, were purchased from the American Type Culture Collection (Manassas Va.) and cultured in RPMI1640 medium supplemented with 10% FBS and 1% penicillin/streptomycin (Gibco/BRL). The cells were grown in a humidified, air-containing incubator, supplemented with 5% CO2 at 37° C. Stable NCI-H292 cell lines over-expressing hICACC-1 were established by transfection of pcDNA3-hICACC-1 using a Fujin Transfection kit according to the manufacture's instruction (Boehringer-Mannheim). A control cell line was produced, NCI-H292/ctl, by the transfection of pcDNA3 (ctl) into the NCI-H292 cell line using the same procedure. Expression of the hICACC-1 gene was confirmed for the pcDNA3-hICACC-1 transfectent by Northern analysis.
For the determination of mucous glycoconjugate production, NCI-H292/ctl and NCI-H292/hICACC-1 (AAF 15) cells were cultured in 24-well plates for 3 days. Cells were then fixed with Formalin and mucous glycoconjugates were visualized by AB/PAS staining (Sigma). […] For chloride channel blockage studies, cells were cultured in the presence of niflumic acid (NFA) (Sigma) at 100 μM concentration, mefanamic acid (MFA) at 125 or 250 μM or talniflumate at 12.5, 25 or 50 μM, or media alone.

For the next data set, the system named is activated LHL4 cells. The data set can be described thus: Eotaxin production by activated LHL4 cells (ELISA). It is filed as cell-based. As to conditions: increasing concentrations. On the procedure:
Activated LHL4 cells that express and secrete eotaxin have been produced and used to test for inhibitors of eotaxin production. These cells were assayed in vitro for eotaxin by an ELISA technique well known in the art (R&D Systems).

For data set [4], the system named is activated Caco2 cell line. Put plainly: Viability of activated Caco2 cells treated with NFA. It is filed as cell-based. The conditions noted are these: even higher concentrations of NFA.
In a further data set the test system is IL9 transgenic mice. The data set can be described thus: Mucin production in lungs of IL9 transgenic mice, intra-tracheal treatment. As to conditions: NFA (100 μg) IT once daily for three days. It is filed as in vivo. On the procedure: Certified virus-free male and female IL9 transgenic mice (IL9TG5-FVB/N) 5-6 weeks of age were bred in our laboratories. Male and female FVB/N mice 5-6 weeks of age were purchased from Jackson Laboratories (Bar Harbor Me.). Animals were housed in high-efficiency, particulate filtered air and allowed free access to food and water for 3 to 7 days prior to experimental manipulation. The animal facilities were maintained at 22° C. and the light:dark cycle was automatically controlled (10:14 hour light:dark).
Animals were phenotyped, naïve, or 24 hrs after receiving intra-tracheal (IT) shame (vehicle) treatment, or drugs in the same vehicle as was used in identically treated controls. Mice were treated IT once daily for three days. NFA (100 μg) or antibody to IL-9 were administered in PBS IT. […] The up-regulation of mucus production in the IL9 transgenic is specifically associated with increased steady-state mRNA levels of MUC2 and MUC5AC as shown by RT-PCR (FIG. 9).

The test system of data set [5] is mice sensitized by nasal aspiration of Aspergillus fumigatus antigen. In kind it is in vivo.
The test system of a further data set is MUC2 transcription. Put plainly: MUC2 promoter luciferase reporter, lipoteichoic acid induction. It is filed as cell-based. As to conditions: LTA from S. aureus; FIG. 22. How it is done: MUC2 transcription was monitored as described in Li et al. (1998) Proc. Natl. Acad. Sci., USA, Vol. 95, pp. 5718-5723. Briefly, an epithelial cell line was transfected with a reporter construct containing the promoter region from the MUC2 gene cloned upstream of a luciferase reporter gene. Transfected cells were treated with serum free media (SFM) alone or, as indicated, containing lipoteichoic acid from S. aureus bacteria (LTA), adenosine (aden), or talniflumate (MSI). Cells were then lysed and luciferase enzyme activity in the lysates was measured (RLU). Talniflumate modulated the lipoteichoic acid induction of MUC2 (see FIG. 22). This is also an appropriate model for CF.

In data set [6] the test system is B6D2F1 mice sensitized with Aspergillus fumigatus. Put plainly: Murine asthma model, Aspergillus fumigatus sensitization, Talniflumate containing mouse chow. In kind it is in vivo. The conditions noted are these: oral.
Data set [7] deals with human chloride channel hICACC-1. Put plainly: Patch clamp chloride current, NCI-H292 cell expressing hICACC-1. The conditions noted are these: 5 micromolar talniflumate; 2 μM ionomycin and 2 mM calcium. It is filed as cell-based. How it is done: An NCI-H292 cell transfected with a plasmid expressing the human chloride channel hICACC-1 was patch clamped and chloride current (I) was measured over a range of voltages (V). Substantial chloride current was invoked by the addition of 2 μM ionomycin and 2 mM calcium (circles) compared to baseline (squares), indicating activation of hICACC-1.

The test system of data set [8] is CF mice (CF knock-out mice and CF ΔF508 mice). As to conditions: po, 100 mg/kg.
The target of data set [9] is T1, murine chloride channel, mICACC-1 (Mus musculus, UniProt Q9D7Z6).
T1 construct: expressed in transfected cells; host or cells: HEK293
T1 sequence (Q9D7Z6 22-913): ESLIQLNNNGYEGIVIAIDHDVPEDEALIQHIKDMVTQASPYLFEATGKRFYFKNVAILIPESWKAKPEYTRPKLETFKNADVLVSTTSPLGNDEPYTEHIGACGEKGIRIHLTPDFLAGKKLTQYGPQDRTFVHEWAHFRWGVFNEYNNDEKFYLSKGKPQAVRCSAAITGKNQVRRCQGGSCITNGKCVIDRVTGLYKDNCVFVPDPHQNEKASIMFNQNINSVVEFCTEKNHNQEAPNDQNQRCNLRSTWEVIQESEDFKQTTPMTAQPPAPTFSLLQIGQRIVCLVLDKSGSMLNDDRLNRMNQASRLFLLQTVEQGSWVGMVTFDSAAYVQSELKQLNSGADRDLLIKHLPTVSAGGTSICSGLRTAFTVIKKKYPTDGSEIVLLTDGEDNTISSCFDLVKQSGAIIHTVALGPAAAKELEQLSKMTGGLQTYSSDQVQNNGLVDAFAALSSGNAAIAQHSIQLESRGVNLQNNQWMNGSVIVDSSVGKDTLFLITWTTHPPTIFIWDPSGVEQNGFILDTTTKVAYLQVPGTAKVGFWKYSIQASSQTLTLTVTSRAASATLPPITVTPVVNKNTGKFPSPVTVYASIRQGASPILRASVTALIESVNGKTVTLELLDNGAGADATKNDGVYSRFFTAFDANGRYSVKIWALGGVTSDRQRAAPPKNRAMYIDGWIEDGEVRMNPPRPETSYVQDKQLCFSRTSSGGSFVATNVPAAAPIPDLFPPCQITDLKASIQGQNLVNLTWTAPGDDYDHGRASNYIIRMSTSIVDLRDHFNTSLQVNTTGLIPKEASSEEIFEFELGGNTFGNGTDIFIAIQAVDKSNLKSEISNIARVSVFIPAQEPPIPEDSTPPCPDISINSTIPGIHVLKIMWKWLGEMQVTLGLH
Put plainly: Patch clamp chloride current, HEK293 cell expressing mICACC-1. It is filed as cell-based. As to conditions: for Chloride Current (nA/pF): + ionomycin + Ca. On the procedure:
A HEK293 cell transfected with a plasmid expressing a murine chloride channel, mICACC-1, was patch clamped and chloride current was measured over a range of voltages (V, left column) and the results are shown in Table 3 below. Each row lists currents invoked at a particular positive voltage in the absence (−) or presence (+) of ionomycin and calcium, and in the presence of an indicated concentration of diclofenac (μM). Substantial current was invoked by the addition of 2 μM ionomycin and 2 mM calcium-compare the first two columns-indicating activation of mICACC-1 by the ionomycin/calcium treatment. For example, at 100 mV of positive voltage, the chloride current was increased from 39 nA/pF to 105 nA/pF.

Each structure is given as a SMILES string. Entries after “also recorded” stand apart in the source; their conditions may differ.

We go through eleven compounds from US7345051B2, “Mucin synthesis inhibitors” (Genaera Corporation, priority 2000, dated 2008).

Turning to `O=C1OC(CC(=O)c2cccnc2Oc2cccc(Br)c2)c2ccccc21` (stereo not shown) [Compound 14], in the data set with H292 clone 15 cells, the “Est. LD50 (μM)(alamar Blue)*” value amounted to 16 µM.
On to `O=C1OC(CC(=O)c2cccnc2Sc2ccccc2Cl)c2ccccc21` (stereo not shown) [Compound 15], for which the “Est. LD50 (μM)(alamar Blue)*” value in the data set on H292 clone 15 cells was determined as 15 µM. Besides, the IC50 in [1] was determined as 2.5 µM.
As for `O=C(O)c1ccccc1Nc1cccc(C(F)(F)F)c1` [Flufenamate], in the data set on activated Caco2 cells, the “Mucin production by activated Caco2 cells” value is reported as “inhibited”.
As to `COC(=O)c1cccnc1Nc1cccc(C(F)(F)F)c1` [MSI 2213, Niflumic acid methyl ester], the ELLA entry in data set [2] is “−”.
As to `Cc1ccc(Cl)c(Nc2ccccc2C(=O)O)c1Cl` [Meclofenamate], the “Mucin production by activated Caco2 cells” value in the data set with activated Caco2 cells is listed as “partially”.
For the compound `Cc1cccc(Nc2ccccc2C(=O)O)c1C` [Mefenamate], in the data set on activated Caco2 cells, the “Mucin production by activated Caco2 cells” value is given as “partially”. The “PAS positive staining muco-glycoconjugates compared with untreated cells” value in [3] (MFA at 125 or 250 μM) is on record as “significantly fewer positive staining muco-glycoconjugates”.
On to `O=C(O)c1cccnc1Nc1cccc(C(F)(F)F)c1` [NFA, niflumic acid], for which, in the data set on activated LHL4 cells, the eotaxin production entry is listed as “Significant inhibition; also recorded: blocks epithelial activation including chemokine production”. Besides, the viability result in data set [4] is “not affected; also recorded: did not effect their viability”. Moreover, in the data set with IL9 transgenic mice, the “mucin production in the IL9 transgenic lungs” value was “decreased mucin production”. In addition, in data set [3] (NFA at 100 μM), the “PAS positive staining muco-glycoconjugates compared with untreated cells” value is listed as “significantly fewer positive staining muco-glycoconjugates”. Further, the “serum IgE levels” value in data set [5] (100 μg of NFA intra-tracheal, days 0-21, vs PBS) is “no effect”. For the same compound, in data set [5] (mouse, in vivo), the BAL lung eosinophilia result is “suppress; also recorded: reduces antigen-induced lung eosinophilia in vivo” and the antigen-induced airway hyperresponsiveness result was “suppress; also recorded: suppresses antigen-induced airway hyperresponsiveness”.
For `COc1ccc2cc([C@H](C)C(=O)O)ccc2c1` [Naproxen], the “Mucin production by activated Caco2 cells” value in the data set on activated Caco2 cells was “ineffective”.
The same measure, in the same setting: as for `CC1=C(CC(=O)O)c2cc(F)ccc2/C1=C\c1ccc([S+](C)[O-])cc1` (stereo not shown) [Sulindac], the entry is “ineffective”.
Take `O=C1OC(OC(=O)c2cccnc2Nc2cccc(C(F)(F)F)c2)c2ccccc21` (stereo not shown) [Talniflumate, talniflumate]: in the data set with H292 clone 15 cells, the “Est. LD50 (μM)(alamar Blue)*” value came out at 108 µM. For the same compound, the “lipoteichoic acid induction of MUC2 (luciferase, RLU)” value in the data set on MUC2 transcription was “modulated”. In data set [6] (Talniflumate coated chow, sensitized mice vs standard chow), the “lung eosinophilia, number of eosinophilic cells by bronchoalveolar lavage” value was “reduced the number of eosinophilic cells; also recorded: inhibition of lung eosinophilia”. Besides, the “mucin staining (PAS) in lung” value in [6] (Talniflumate containing chow ad lib, Asp-sens mice vs regular chow) is “reduced mucin staining; also recorded: inhibition of mucin over production”. In addition, in [3] (talniflumate at 12.5, 25 or 50 μM), the “PAS positive staining muco-glycoconjugates compared with untreated cells” value is “significantly fewer positive staining muco-glycoconjugates”. Besides, in data set [7], the “chloride current at positive voltage” value was “reduction in chloride current”. Besides, in data set [8], the body weight gained was 8-12%.
With `O=C(O)Cc1ccccc1Nc1c(Cl)cccc1Cl` [diclofenac], the “Chloride Current (nA/pF)” value in data set [9] (0 mV, diclofenac 5 μM) stood at 20 nA/pF; in [9] (0 mV, diclofenac 20 μM), 20 nA/pF; in data set [9] (0 mV, diclofenac 50 μM), 19 nA/pF; in data set [9] (20 mV, diclofenac 5 μM), 36 nA/pF; in data set [9] (20 mV, diclofenac 20 μM), 34 nA/pF; in [9] (20 mV, diclofenac 50 μM), 33 nA/pF. For the same compound, the “Chloride Current (nA/pF)” value is 53 nA/pF in data set [9] (40 mV, diclofenac 5 μM); 51 nA/pF in data set [9] (40 mV, diclofenac 20 μM); 48 nA/pF in data set [9] (40 mV, diclofenac 50 μM); 72 nA/pF in data set [9] (60 mV, diclofenac 5 μM); 69 nA/pF in [9] (60 mV, diclofenac 20 μM); 66 nA/pF in data set [9] (60 mV, diclofenac 50 μM). For the same compound, the “Chloride Current (nA/pF)” value is listed as 92 nA/pF in data set [9] (80 mV, diclofenac 5 μM); 88 nA/pF in [9] (80 mV, diclofenac 20 μM); 85 nA/pF in data set [9] (80 mV, diclofenac 50 μM); 115 nA/pF in [9] (100 mV, diclofenac 5 μM); 109 nA/pF in data set [9] (100 mV, diclofenac 20 μM); 106 nA/pF in [9] (100 mV, diclofenac 50 μM). In addition, the “inhibition of channel activity” value in [9] (diclofenac 5 μM to 50 μM, 2 μM ionomycin and 2 mM calcium) is “No inhibition”.
